# Results reported in ChEMBL document CHEMBL4765241, “Identification and Preclinical Pharmacology of ((1 R,3 S)-1-Amino-3-(( S)-6-(2-methoxyphenethyl)-5,6,7,8-tetrahydronaphthalen-2-yl)cyclopentyl)methanol (BMS-986166): A Differentiated Sphingosine-1-phosphate Receptor 1 (S1P) Modulator Advanced into Clinical Trials” (J Med Chem, 2019).
# Active and inactive are the calls of the source. The rule behind the calls is not given here.
# What was measured:
# [1] = biological target: Sphingosine 1-phosphate receptor 3 (Homo sapiens, UniProt Q99500); experiment: Agonist activity at human recombinant S1P3 expressed in CHO cell membranes assessed as stimulation of [35S]-GTPgammaS binding measured after 45 mins by liquid scintillation counting assay; set-up: species or system Cell membrane
# Chain of Sphingosine 1-phosphate receptor 3 (Q99500 whole entry): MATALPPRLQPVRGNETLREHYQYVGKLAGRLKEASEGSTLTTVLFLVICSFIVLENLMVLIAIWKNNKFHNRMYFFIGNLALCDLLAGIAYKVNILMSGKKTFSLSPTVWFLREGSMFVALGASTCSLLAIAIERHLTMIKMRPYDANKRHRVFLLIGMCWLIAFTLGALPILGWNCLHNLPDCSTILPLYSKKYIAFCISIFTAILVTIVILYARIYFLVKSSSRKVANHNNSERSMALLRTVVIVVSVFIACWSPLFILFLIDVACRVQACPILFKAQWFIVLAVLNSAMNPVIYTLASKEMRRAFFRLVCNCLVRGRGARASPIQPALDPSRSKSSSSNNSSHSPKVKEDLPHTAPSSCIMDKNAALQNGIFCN
# Rattus norvegicus [2] = experiment: Reduction in circulating lymphocytes in Lewis rat blood at 2 mg/kg, po measured at 4 hrs by hematology analyzer based analysis; type: functional; set-up: scale not given: the % may be the effect or the level left
# [3] = Drug metabolism in Lewis rat blood assessed as concentration of parent compound at 2 mg/kg, po measured at 4 hrs by LC-MS/MS analysis; type: ADME, organism-based; conditions: read-out: Ct
# Rattus norvegicus [4] = experiment: Reduction in circulating lymphocytes in Lewis rat blood at 2 mg/kg, po measured at 24 hrs by hematology analyzer based analysis; type: functional; set-up: scale not given: the % may be the effect or the level left
# [5] = Drug metabolism in Lewis rat blood assessed as concentration of parent compound at 2 mg/kg, po measured at 24 hrs by LC-MS/MS analysis; type: ADME, organism-based; conditions: read-out: Ct
# [6] = Half-life in Lewis rat at 2 mg/kg, po measured over 72 hrs by LC-MS/MS analysis; type: ADME, organism-based; conditions: in vivo
# [7] = Ratio of drug metabolism in Lewis rat blood assessed as phosphate ester metabolite to parent drug at 2 mg/kg, po measured at 24 hrs by LC-MS/MS analysis; type: ADME, organism-based; conditions: in vivo
# [8] = Pulmonary toxicity in Lewis rat assessed as elevation of BAL protein level at 10 mg/kg by advia1800 chemistry analyzer; type: organism-based; conditions: in vivo
# [9] = Pulmonary toxicity in Lewis rat assessed as elevation of BAL protein level at 2 mg/kg by advia1800 chemistry analyzer; type: organism-based; conditions: in vivo
# Rattus norvegicus [10] = experiment: Reduction in circulating lymphocytes in Lewis rat blood assessed as effective dose after oral dosing measured at 24 hrs by hematology analyzer based analysis; type: functional
# Rattus norvegicus [11] = experiment: Drug metabolism in Lewis rat blood assessed as concentration of phosphate ester metabolite formation at 2 mg/kg, po measured at 4 hrs by LC-MS/MS analysis; conditions: in vivo
# [12] = Pulmonary toxicity in Lewis rat assessed as elevation of BAL protein level at 25 mg/kg by advia1800 chemistry analyzer; type: organism-based; conditions: in vivo
# Mus musculus [13] = experiment: Reduction in circulating lymphocytes in Balb/c mouse blood at 1 mg/kg, po measured at 4 hrs by hematology analyzer based analysis; type: functional; set-up: scale not given: the % may be the effect or the level left
# Mus musculus [14] = experiment: Reduction in circulating lymphocytes in Balb/c mouse blood at 50 mg/kg, po measured at 4 hrs by hematology analyzer based analysis; type: functional; set-up: scale not given: the % may be the effect or the level left
# Mus musculus [15] = experiment: Reduction in circulating lymphocytes in Balb/c mouse blood at 1 mg/kg, po measured at 24 hrs by hematology analyzer based analysis; type: functional; set-up: scale not given: the % may be the effect or the level left
# Mus musculus [16] = experiment: Reduction in circulating lymphocytes in Balb/c mouse blood at 50 mg/kg, po measured at 24 hrs by hematology analyzer based analysis; type: functional; set-up: scale not given: the % may be the effect or the level left
# [17] = Drug metabolism in Balb/c mouse blood assessed as concentration of parent compound at 1 mg/kg, po measured at 4 hrs by LC-MS/MS analysis; type: ADME, organism-based; conditions: Balb/c, blood, read-out: Ct
# [18] = Drug metabolism in Balb/c mouse blood assessed as concentration of parent compound at 50 mg/kg, po measured at 4 hrs by LC-MS/MS analysis; type: ADME, organism-based; conditions: read-out: Ct
# [19] = Drug metabolism in Balb/c mouse blood assessed as concentration of phosphate ester metabolite formation at 1 mg/kg, po measured at 4 hrs by LC-MS/MS analysis; type: ADME, organism-based; conditions: in vivo
# [20] = Drug metabolism in Balb/c mouse blood assessed as concentration of phosphate ester metabolite formation at 50 mg/kg, po measured at 4 hrs by LC-MS/MS analysis; type: ADME, organism-based; conditions: in vivo
# [21] = Drug metabolism in Balb/c mouse blood assessed as concentration of parent compound at 1 mg/kg, po measured at 24 hrs by LC-MS/MS analysis; type: ADME, organism-based; conditions: Balb/c, blood, read-out: Ct
# [22] = Drug metabolism in Balb/c mouse blood assessed as concentration of parent compound at 50 mg/kg, po measured at 24 hrs by LC-MS/MS analysis; type: ADME, organism-based; conditions: read-out: Ct
# [23] = Drug metabolism in Balb/c mouse blood assessed as concentration of phosphate ester metabolite formation at 1 mg/kg, po measured at 24 hrs by LC-MS/MS analysis; type: ADME, organism-based; conditions: in vivo
# [24] = Drug metabolism in Balb/c mouse blood assessed as concentration of phosphate ester metabolite formation at 50 mg/kg, po measured at 24 hrs by LC-MS/MS analysis; type: ADME, organism-based; conditions: in vivo
# [25] = Ratio of drug metabolism in Balb/c mouse blood assessed as phosphate ester metabolite to parent drug at 1 mg/kg, po measured at 24 hrs by LC-MS/MS analysis; type: ADME, organism-based; conditions: in vivo
# [26] = Ratio of drug metabolism in Balb/c mouse blood assessed as phosphate ester metabolite to parent drug at 30 mg/kg, po measured at 24 hrs by LC-MS/MS analysis; conditions: in vivo
# Mus musculus [27] = experiment: Reduction in circulating lymphocytes in Balb/c mouse blood at 15 mg/kg, po measured at 4 hrs by hematology analyzer based analysis; type: functional; set-up: scale not given: the % may be the effect or the level left
# Mus musculus [28] = experiment: Reduction in circulating lymphocytes in Balb/c mouse blood at 15 mg/kg, po measured at 24 hrs by hematology analyzer based analysis; type: functional; set-up: scale not given: the % may be the effect or the level left
# [29] = Drug metabolism in Balb/c mouse blood assessed as concentration of parent compound at 15 mg/kg, po measured at 4 hrs by LC-MS/MS analysis; type: ADME, organism-based; conditions: read-out: Ct
# [30] = Drug metabolism in Balb/c mouse blood assessed as concentration of phosphate ester metabolite formation at 15 mg/kg, po measured at 4 hrs by LC-MS/MS analysis; type: ADME, organism-based; conditions: in vivo
# [31] = Drug metabolism in Balb/c mouse blood assessed as concentration of parent compound at 15 mg/kg, po measured at 24 hrs by LC-MS/MS analysis; type: ADME, organism-based; conditions: read-out: Ct
# [32] = Drug metabolism in Balb/c mouse blood assessed as concentration of phosphate ester metabolite formation at 15 mg/kg, po measured at 24 hrs by LC-MS/MS analysis; type: ADME, organism-based; conditions: in vivo
# [33] = Ratio of drug metabolism in Balb/c mouse blood assessed as phosphate ester metabolite to parent drug at 15 mg/kg, po measured at 24 hrs by LC-MS/MS analysis; type: ADME, organism-based; conditions: in vivo
# [34] = Cardiotoxicity in human iPSC derived cardiomyocytes assessed as reduction in beating rate at 1 nM measured over 2 hrs by multi-electrode array relative to control; type: toxicity, cell-based; set-up: scale not given: the % may be the effect or the level left; conditions: stem cell-derived cardiomyocyte, 0.001 µM
# [35] = Cardiotoxicity in human iPSC derived cardiomyocytes assessed as reduction in beating rate at 10 nM measured over 2 hrs by multi-electrode array relative to control; type: toxicity, cell-based; set-up: scale not given: the % may be the effect or the level left; conditions: stem cell-derived cardiomyocyte, 0.01 µM
# [36] = biological target: T1, Sphingosine 1-phosphate receptor 4 (Homo sapiens, UniProt O95977); experiment: Agonist activity at human recombinant S1P4 expressed in CHO cell membranes assessed as stimulation of [35S]-GTPgammaS binding measured after 45 mins by liquid scintillation counting assay; type: functional, Cell membrane
# T1 sequence (O95977 whole entry): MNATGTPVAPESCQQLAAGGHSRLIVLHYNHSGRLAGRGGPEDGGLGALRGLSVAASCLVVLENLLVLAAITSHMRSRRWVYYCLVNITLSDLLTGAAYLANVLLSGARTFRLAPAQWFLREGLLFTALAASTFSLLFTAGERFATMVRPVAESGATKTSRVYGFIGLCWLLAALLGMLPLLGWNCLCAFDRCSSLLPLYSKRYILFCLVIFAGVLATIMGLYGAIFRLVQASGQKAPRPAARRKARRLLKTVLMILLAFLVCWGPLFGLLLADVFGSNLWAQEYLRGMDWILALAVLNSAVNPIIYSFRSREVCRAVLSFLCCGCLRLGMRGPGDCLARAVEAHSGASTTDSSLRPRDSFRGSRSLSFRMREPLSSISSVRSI
# Cerebellar cortex [37] = experiment: Induction of remyelination in lysophosphatidylcholine-induced demyelination in wild-type CD1 mouse organotypic cerebellar slice at 0.01 to 10 nM incubated for 7 days by immunohistochemistry based three-dimensional brain cell culture assay; type: functional, tissue-based; conditions: dose 0.01-10 nM, time 7.0 day
# Cerebellar cortex [38] = experiment: Induction of remyelination in lysophosphatidylcholine-induced demyelination in wild-type CD1 mouse organotypic cerebellar slice assessed as myelination index at 0.01 to 10 nM incubated for 7 days by immunohistochemistry based three-dimensional brain cell culture assay (reference value: 50%); type: functional; conditions: dose 0.01-10 nM, time 7 day
smiles,measurement,setting,value
CCCCCC[C@@H]1CCc2cc([C@H]3CC[C@](N)(COP(=O)(O)O)C3)ccc2C1,EC50,[1],> 1000 nM
COc1ccccc1CC[C@H]1CCc2cc([C@H]3CC[C@](N)(CO)C3)ccc2C1,Activity,Rattus norvegicus [2],46%
same,concentration at 4 h,[3],90 nM
same,Activity,Rattus norvegicus [4],81%
same,concentration at 24 h,[5],50 nM
same,half-life,[6],20 h
same,Ratio,[7],1
same,Activity,[8],29 mg/dL
same,Activity,[9],10.5 mg/dL
same,ED50,Rattus norvegicus [10],0.05 mg/kg
same,Drug metabolism,Rattus norvegicus [11],40 nM
COc1ccc(CC[C@H]2CCc3cc([C@H]4CC[C@](N)(CO)C4)ccc3C2)cc1,Activity,Rattus norvegicus [2],33%
same,concentration at 4 h,[3],170 nM
same,Activity,Rattus norvegicus [4],84%
same,concentration at 24 h,[5],40 nM
same,half-life,[6],7 h
same,Ratio,[7],0.75
same,Activity,[12],24.3 mg/dL
same,ED50,Rattus norvegicus [10],0.6 mg/kg
same,Drug metabolism,Rattus norvegicus [11],10 nM
COc1ccc(CC[C@@H]2CCc3cc([C@H]4CC[C@](N)(CO)C4)ccc3C2)cc1,Activity,Rattus norvegicus [2],21%
same,concentration at 4 h,[3],190 nM
same,Activity,Rattus norvegicus [4],81%
same,concentration at 24 h,[5],40 nM
same,half-life,[6],11 h
same,Ratio,[7],0.4
same,Activity,[12],26 mg/dL
same,ED50,Rattus norvegicus [10],0.5 mg/kg
same,Drug metabolism,Rattus norvegicus [11],10 nM
N[C@]1(CO)CC[C@H](c2ccc3c(c2)CC[C@H](Cc2ccccc2)C3)C1,Activity,Mus musculus [13],21%
same,Activity,Mus musculus [14],83%
same,Activity,Mus musculus [15],15%
same,Activity,Mus musculus [16],78%
same,concentration at 4 h,[17],28 nM
same,concentration at 4 h,[18],1800 nM
same,Drug metabolism,[19],12 nM
same,Drug metabolism,[20],480 nM
same,concentration at 24 h,[21],9 nM
same,concentration at 24 h,[22],300 nM
same,Drug metabolism,[23],11 nM
same,Drug metabolism,[24],310 nM
same,Ratio,[25],1.2
same,Ratio,[26],1
N[C@]1(CO)CC[C@H](c2ccc3c(c2)CC[C@@H](CCc2ccccc2)C3)C1,Activity,Mus musculus [13],10%
same,Activity,Mus musculus [27],81%
same,Activity,Mus musculus [15],52%
same,Activity,Mus musculus [28],88%
same,concentration at 4 h,[17],13 nM
same,concentration at 4 h,[29],150 nM
same,Drug metabolism,[19]; BLD = below limit of detection,Bld
same,Drug metabolism,[30],110 nM
same,concentration at 24 h,[21],12 nM
same,concentration at 24 h,[31],160 nM
same,Drug metabolism,[23],34 nM
same,Drug metabolism,[32],360 nM
same,Ratio,[25],2.8
same,Ratio,[33],2.3
same,Activity,Rattus norvegicus [2],43%
same,concentration at 4 h,[3],130 nM
same,Activity,Rattus norvegicus [4],82%
same,concentration at 24 h,[5],140 nM
same,half-life,[6],> 75 h
same,Ratio,[7],6
same,Drug metabolism,Rattus norvegicus [11],150 nM
COc1cccc(CC[C@H]2CCc3cc([C@H]4CC[C@](N)(CO)C4)ccc3C2)c1,Activity,Rattus norvegicus [2],44%
same,concentration at 4 h,[3],120 nM
same,Activity,Rattus norvegicus [4],85%
same,concentration at 24 h,[5],210 nM
same,half-life,[6],49 h
same,Ratio,[7],1.1
same,Activity,[8],17.5 mg/dL
same,Activity,[9],10 mg/dL
same,ED50,Rattus norvegicus [10],0.05 mg/kg
same,Drug metabolism,Rattus norvegicus [11],30 nM
CCCCCCCCc1ccc(CC[C@](N)(CO)COP(=O)(O)O)cc1 [FTY720-P],Activity,[34],38%
same,Activity,[35],62%
same,EC50,[36],1.6 nM
same,Activity,Cerebellar cortex [37],Active
same,Activity,Cerebellar cortex [38],100%
